Results as given in patent publication US10155948B2, “Pharmaceutical composition for preventing or treating diabetic complications and screening method for preventive or therapeutic agent for diabetic complications” (KANGWON NATIONAL UNIVERSITY UNIVERSITY-INDUSTRY COOPERATION …, priority 2016, dated 2018).

Key:
[1] = test system: retinas of diabetic mice; assay: Vascular leakage in retina of diabetic mice (fluorescein angiography, FITC-dextran); format: in vivo, mouse; details: for vascular leakage in diabetic retina (FITC-dextran extravasation): diabetic mice, intravitreal 2 μl 50 mM cystamine or 20 mM MDC, after 24 hrs, p<0.001, n=8; for increase of vascular leakage in retinas of diabetic mice: intravitreal injection, 0.5 mM dopamine, 500 mM cysteamine, n=6
Method: Two weeks after streptozotocin injection, diabetic mice were intravitreally injected with 2 μl of TGase inhibitors (50 mM cystamine or 20 mM MDC), 1 μM C-peptide (American Peptide Company, Sunnyvale, Calif.), ROS scavengers (2 μM Trolox or 500 mM NAC), or 65 μM mouse TG2-specific siRNA (Dharmacon, Lafayette, Colo.) into one eye and an equal volume of PBS or mouse control siRNA (Dharmacon, Lafayette, Colo.) into the contralateral eye. Non-diabetic mice were also intravitreally injected with 2 μl of PBS or mouse control siRNA into the eyes. After 24 hrs for inhibitors or C-peptide or 48 hrs for mouse TGase2 siRNA, mice were subjected to measurement of in-vivo TGase activity and vascular leakage from the retina.
Microvascular leakage in mouse retina was investigated via the fluorescein angiography method as previously described. In brief, 24 hrs or 48 hrs after intravitreal injection of TGase2 inhibitors or mouse TGase2 siRNA, respectively, mice were deeply anaesthetized and 1.25 mg of 500 kDa FITC-dextran (Sigma) was injected into the left ventricle. The dye was allowed to circulate for 5 min and mice were sacrificed via cervical dislocation. The eyes were enucleated and immediately fixed with 4% paraformaldehyde for 45 min. Retinas were dissected in the Maltese cross-configuration and flat-mounted onto glass slides. The superficial vessels of the retinas (n=8 per group) were observed by confocal microscopy and vascular leakage was quantitatively analyzed using the Fluoview software by determining the fluorescence intensities of FITC-dextran extravasated from the retina vessel.
Six-week-old male C57BL/6 mice were obtained from KOATECH (Pyeongtaek, Korea). TGase2^−/− mice (C57BL/6) were prepared by disrupting exons 5 and 6 of TGase2 by homologous recombination, as previously described. Diabetic mice were generated by a single intraperitoneal injection of streptozotocin (150 mg/kg body weight, Sigma) freshly prepared in 100 mM citrate buffer (pH 4.5) as previously described. Mice with non-fasting blood glucose levels greater than 19 mM, polyuria and glucosuria were considered diabetic. Experiments were performed in strict accordance with the guidelines of the Institutional Animal Care and Use Ethics Committee of Kangwon National University.
(A, B) Streptozotocin-diabetic mice were intravitreally injected with PBS (diabetic), cystamine (diabetic+Cys) or MDC (diabetic+MDC) into the eyes. Non-diabetic mice were also intravitreally injected with PBS into eyes (normal). […] (B) Retina permeability was quantified by measuring the fluorescence intensities of FITC-dextran in (A). […]
Dopamine and cysteamine were intravitreally injected into mouse eyes, and diabetic retinas were then analyzed for vascular leakage through fluorescein angiography.

[2] = test system: VE-cadherin; assay: Visualization of VE-cadherin (adherens junction disruption) in HRECs; format: cell-based, human; details: for VEGF-induced VE-cadherin breakdown: HRECs, 50 μM cystamine or 20 μM MDC 30 min, 10 ng/ml VEGF; for VEGF-induced VE-cadherin disruption: summary statement, conditions not given
Method: Actin filaments and VE-cadherin were visualized as previously described. For visualization of actin filaments, cells were treated with 10 ng/ml VEGF for 1 hr at 37° C., fixed with 3.7% formaldehyde, and permeabilized with 0.2% Triton X-100. […] For visualization of VE-cadherin, cells were preincubated with the TGase2 inhibitors for 30 min and treated with 10 ng/ml VEGF for 90 min at 37° C. Following fixation and permeabilization, cells were incubated overnight with a monoclonal anti-VE-cadherin antibody (1:200, Santa Cruz Biotechnology) at 4° C. Cells were then probed with an FITC-conjugated goat anti-mouse antibody (1:200, Sigma) and VE-cadherin was visualized using confocal microscopy. Adherens junctions are represented by histograms of VE-cadherin as indicated by dotted lines and were quantitatively analyzed using peak fluorescence intensities of the histograms at the single-cell level for 10 randomly selected cells per experiment.
(A-C) HRECs were preincubated with 50 μM cystamine (Cys) and 20 μM MDC for 30 min and treated with 10 ng/ml VEGF. Stress fibers and VE-cadherin were stained and visualized by confocal microscopy as described in Research Design and Methods (n=3) ((A) Representative images of stress fibers. Scale Bar, 30 μm. (B) Representative images of VE-cadherin. Scale Bar, 10 μm). Adherens junctions are represented by histograms of VE-cadherin as indicated by dotted lines. (C) Adherens junctions were quantitatively analyzed using the peak fluorescence intensities of the histograms at the single-cell level. The results are expressed as mean±SD from three independent trials. (D) In-vitro endothelial cell monolayer permeability assay. HRECs on inserts of Transwell® Permeable Supports were incubated with 50 μM cystamine and 20 μM MDC for 30 min and treated with 10 ng/mL VEGF for 90 min. The amount of FITC-dextran that diffused to the lower chamber was measured by a microplate spectrofluorometer (n=3) (**p<0.01).
HRECs were transfected with 100 nM human TGase2-specific siRNA (TGase2 siRNA) or 100 nM control (Ctrl) siRNA. Endothelial cells were treated with 10 ng/ml VEGF and subjected to the confocal microscopic visualization of stress fibers (A) and VE-cadherin (B), as described in Research Design and Methods (n=3). (A) TGase2 siRNA inhibition of VEGF-induced formation of stress fibers. Scale bar, 30 μm. (B) Representative images of VE-cadherin and adherens junctions represented by VE-cadherin histograms. Scale bar, 10 μm. (C) Adherens junctions were quantitatively analyzed using peak fluorescence intensities of the histograms at the single-cell level. Results are expressed as mean±SD from three independent experiments (***p<0.001).

| Structure (SMILES) | vascular leakage in diabetic retina (FITC-dextran extravasation) [1] | VEGF-induced VE-cadherin breakdown [2] | increase of vascular leakage in retinas of diabetic mice [1] | VEGF-induced VE-cadherin disruption [2] |
| --- | --- | --- | --- | --- |
| CN(C)c1cccc2c(S(=O)(=O)NCCCCCN)cccc12 [MDC, monodansylcadaverine] | prevented | inhibited | – | – |
| NCCS [cysteamine] | – | – | inhibited | prevented |
| NCCSSCCN [cystamine] | prevented | inhibited | – | – |
| NCCc1ccc(O)c(O)c1 [dopamine] | – | – | inhibited | prevented |
